# Tests used:
# [1] = tested on: isolated perfused guinea pig heart; assay: Langendorff perfused heart assay
# Protocol: After injection of heparin sodium (100 unit/body, AY Pharmaceuticals Co., Ltd.) into the jugular vein, the animals were exsanguinated. […] A stainless-steel cannula was inserted in the aorta, followed by attachment to the Langendorff apparatus (Physio-Tech Co., Ltd., Tokyo, Japan). The attached heart was perfused with KH solution at 37.0 ± 0.2 °C. Before use, the KH solution was aerated by a gas mixture (95%O2 + 5%CO2) for 30 min or longer. The perfusion pressure was maintained at 70 mmHg.
# DMSO solutions at 1, 10, and 100 mM were diluted 1000-fold with the KH solution to make test solutions of 1, 10, and 100 μM, respectively. The test solutions were cumulatively applied at a flow rate of 20 mL/min for 10 min with each concentration.
# An ECG signal was recorded using electrodes fixed on the ventricular apex (+), and a stainless-steel cannula was inserted in the aorta (−), and LVP was recorded from the balloon catheter placed in the left ventricle. The ECG signals were amplified with an amplifier (DAM50; World Precision Instruments, Inc.) and LVPs were monitored with a Pressure Monitor 4 (Living Systems Instrumentation). Both of the waveforms were recorded with computer software (1000 Hz; iox2 and ecgAUTO3; emka Technologies).
# Before measurement, the in-balloon pressure was adjusted so that the diastolic blood pressure would be in the range of 0 to 10 mmHg. The cardiac parameters, such as HR, PR interval, QRS duration, QT interval, QTc interval (Fridericia’s formula: QTc = QT/RR^1/3), LVPSP, left-ventricular end diastolic pressure (LVEDP), and LV dP/dt max, were measured.
# Data are expressed as mean (± SD). The measured % changes from the pre-application value were used for analyses. Williams test was carried out between the solvent-control and test compound. Student’s t-test was carried out between the solvent-control and positive-control. […] The data from the solvent control and drug groups were tested by F test for homogeneity of variance. F test was performed at the significance level of 5%. When the variances were homogeneous, Student’s t-test was subsequently performed. When the variances were nonhomogeneous, Welch t-test was selected.
# peristaltic movement = tested on: peristaltic movement; design: method as in earlier work; conditions: ref review reports on the Pharmaceuticals and Medical Devices Agency website; cited from earlier work
# [2] = cited from earlier work
# rat hippocampal slices [3] = assay: Electrophysiological assay of hippocampal slices, population spike (PS) recording
# Protocol: All animals were housed and used in accordance with the French and European legislations for animal care. Rats (Janvier Labs, Le Genest-Saint-Isle, France) were euthanized by fast decapitation, without prior anesthesia. The brain was quickly removed and soaked in ice-cold oxygenated buffer containing KCl 2 mM, NaH2PO4 1.2 mM, MgCl2 7 mM, CaCl2 0.5 mM, NaHCO3 26 mM, glucose 11 mM, and sucrose 250 mM. […] During the experiments, slices were perfused with oxygenated artificial cerebrospinal fluid at 37 °C at a rate of 3 mL/min. The tested slice numbers were > 2 for 100 µM, > 4 for 10 µM, and > 6 for 1 µM (follow-up study). All experiments were carried out with 3-dimensional multielectrode array (Qwane Biosciences S.A., Lausanne, Switzerland) and data were recorded with a commercially available multielectrode array set-up from MultiChannel Systems (MCS GmbH, Reutlingen, Germany).
# A hippocampal slice was placed on the multielectrode array (100 μm distant electrodes). One electrode was chosen to stimulate schaffer collaterals (SC) at the CA1 border. The stimulus in a monopolar biphasic current pulse (−300 μA for 60 μs followed by +300 μA for 60 μs) was applied at 30-s intervals. An Input/Output (I/O) curve was derived before each experiment to determine the stimulation intensity. Basal stimulation intensity was then set to 100 μA higher than the minimal intensity necessary to induce PS in the pyramidal cell layer.
# Then, 1 μM bicuculline, the antagonist of GABAA, was applied in the continuous presence of the compound for an additional 40-min. Control bicuculline slices were recorded in parallel and after 50 min of control recording, 1 μM bicuculline was applied for a 40-min period.
# Normalized PS AUC was averaged by slices for each experiment carried out in the same conditions. PS AUC (± SEM) is expressed as a function of time. The number of PS oscillations induced at the end of the bicuculline-exposure period was determined for each electrode and averaged by slices. The results are presented as mean of the last 2 min of application. Statistical significance was measured using two-way ANOVA analysis with Sidak’s multiple comparisons test, except for the 100 µM concentration because of its small slice number.
# rat hippocampal slices [4] = assay: Electrophysiological assay of hippocampal slices, epileptiform discharge (ED) recording; conditions: ± SEM
# Protocol: A hippocampal slice was placed on the multielectrode array (200 μm distant electrodes) to ensure the multi-electrode grid covered the major surface of the slice. […]
# ED frequency (in Hz) was determined as follows: raw data were filtered with a Low Pass filter (Butterworth second order filter) set to 20 Hz. ED number was monitored on-line (epileptiform event amplitudes had to be higher than 15 μV to be counted; a dead time of 200 ms was applied for each epileptiform event detected). ED frequency was averaged using 30-s time intervals. Results are presented as mean frequency of ED for the last 2 min of each condition (± SEM).
# [5] = within the existing concentration range of each drug, laboratory background data
# [6] = laboratory background data of drugs, n = 3
SMILES,"Maximum % change in LV dP/dt max [1, 5]","Lowest concentration indicating statistically significant % change to solvent control, HR [1, 6]","Lowest concentration indicating statistically significant % change to solvent control, LVPSP [1, 6]","Lowest concentration indicating statistically significant % change to solvent control, PR [1, 6]","Lowest concentration indicating statistically significant % change to solvent control, QRS [1, 6]","Lowest concentration indicating statistically significant % change to solvent control, LV dP/dtmax [1, 6]","Lowest concentration indicating statistically significant % change to solvent control, QT [1, 6]","Lowest concentration indicating statistically significant % change to solvent control, QTc [1, 6]",EfTPC (effective free therapeutic plasma concentration) [2],further results
O=C(O)COCCN1CCN([C@H](c2ccccc2)c2ccc(Cl)cc2)CC1 [Levocetirizine],−21.8%,–,–,–,–,–,–,–,–,–
Nc1nnc(-c2cccc(Cl)c2Cl)c(N)n1 [Lamotrigine],–,–,–,–,–,–,–,–,–,Concentration at which peristaltic movement was reduced (peristaltic movement): 300 nM
O=C(O[C@@H]1C[C@@H]2C[C@H]3C[C@H](C1)N2CC3=O)c1c[nH]c2ccccc12 [Dolasetron],–,1 µM,1 µM,1 µM,3 µM,–,–,–,–,"Lowest concentration indicating statistically significant % change to solvent control, LV dP/dtmax ([1]; Hartley, guinea pig): 1 µM; Lowest concentration indicating statistically significant % change to solvent control, QT ([1]; Hartley, guinea pig): 1 µM; Lowest concentration indicating statistically significant % change to solvent control, QTc ([1]; Hartley, guinea pig): 1 µM; Maximum % change in PR interval [1, 5]: 106.9%"
C=C[C@H]1C[N@@]2CC[C@H]1C[C@H]2[C@H](O)c1ccnc2ccc(OC)cc12 [Quinine],−77.3%,1 µM,1 µM,3 µM,3 µM,1 µM,1 µM,1 µM,21.577 [25] µM,"Lowest concentration indicating statistically significant % change to solvent control, LVEDP [1, 6]: 30 µM"
"CN1CCc2cc3c(cc2[C@H]1[C@@H]1OC(=O)c2c1ccc1c2OCO1)OCO3 [bicuculline, reference compound]",–,–,–,–,–,–,–,–,–,"Additional spike number (rat hippocampal slices [3]; 1 μM alone, single stimulation, control slices): 1.32 ± 0.32; Additional spike number (rat hippocampal slices [3]; follow-up test, 1 μM bicuculline control slices): 1.47 ± 0.18"
"Nc1ccncc1 [4-AP, 4-aminopyridine, reference compound]",–,–,–,–,–,–,–,–,–,"ED rate (rat hippocampal slices [4]; 4-AP control slices (4-AP alone)): 0.38 ± 0.02 Hz; ED rate (rat hippocampal slices [4]; follow-up test, 4-AP control slices): 0.38 ± 0.04 Hz"
CN(CCOc1ccc(NS(C)(=O)=O)cc1)CCc1ccc(NS(C)(=O)=O)cc1 [Dofetilide],–,0.001 µM,0.03 µM,0.01 µM,–,–,0.001 µM,0.001 µM,–,"Maximum % change in QT interval [1, 5]: 33.5%"
Cc1nccn1CC1CCc2c(c3ccccc3n2C)C1=O (stereo not shown) [Ondansetron],−47.4%,1 µM,1 µM,10 µM,10 µM,1 µM,1 µM,1 µM,1.023 [25] µM,"Lowest concentration indicating statistically significant % change to solvent control, LVEDP [1, 6]: 1 µM"
COc1c(N2C[C@@H]3CCCN[C@@H]3C2)c(F)cc2c(=O)c(C(=O)O)cn(C3CC3)c12 [Moxifloxacin],–,30 µM,3 µM,30 µM,10 µM,100 µM,3 µM,3 µM,10.960 [26] µM,"Maximum % change in QT interval [1, 5]: 29.3%"
